Positions of bridges follow the written chain, without caps; N, C: chain ends. Residues, ends and D or L forms follow the SMILES beside them. No end group written: not given here.
Assays:
human oocyte membrane = assay: Detection of biotinylated FEEc peptide at the surface of human oocytes (immunofluorescence, confocal microscopy); assay type: binding; settings: 200 μM biotinylated peptide, 45 minutes, FIG. 1
Description: (§1) Patients donated said oocytes for research purposes and signed a consent form approved by the Institutional Review Board of the Aulnay-sous-Bois hospital.
(§2) To maintain the oocyte membrane as close as possible to its natural state, the inventors removed the zona pellucida mechanically with microsurgical scissors.
The oocytes were incubated with 200 μM biotinylated FEEc peptide for 45 minutes.
The zona pellucida was mechanically removed from the oocytes which were then incubated for 45 minutes with […] biotinylated peptide. The FEEc peptide was detected with a mouse anti-biotin antibody recognized by a biotinylated anti-mouse immunoglobulin antibody then by streptavidin-FITC. The oocytes were then mounted in immunomount between the coverslip and the slide and examined under a confocal microscope, B: superimposition of sections corresponding to a hemi-oocyte.

[1] = test system: human zona-free oocytes and spermatozoa; assay type: cell-based
Description: as §1
These oocytes aged 48 hours or matured in vitro were not or were no longer capable of producing an embryo. Moreover, the polyspermy blocking mechanism which ensures that the embryo will be diploid is located in the zona pellucida of the oocyte. By removing the zona pellucida of these oocytes, this protective mechanism is abolished, leading to nonviable polyspermic zygotes in the event of gamete fusion. Finally, as embryo development occurs inside the zona pellucida for the first six days, the absence of the latter precludes said development from taking place.
as §2
Sperm from fertile donors was collected after three days of abstinence and prepared as for IVF. […]
Functional tests of inhibition of fusion were carried out in conditions similar to those used for IVF, that is, in conditions sufficiently close to physiological conditions since they enable pregnancy and fetuses. […] The slides were analyzed under a Zeiss Axiophot microscope equipped with a camera connected to Imaging System Package image analysis software (Applied Imaging, Newcastle-upon-Tyne, UK). […]

biotinylated FEEc: FEEc cyclic peptide labelled with biotin for detection on oocytes (CSFEEC; disulfide 1-6 (inferred); also: biotinylated (position not given here))
labelling of the oocyte membrane with the peptide (human oocyte membrane): labelling of the membrane

N[C@H]1CSSC[C@@H](C(=O)O)NC(=O)[C@H](CCC(=O)O)NC(=O)[C@H](CCC(=O)O)NC(=O)[C@H](Cc2ccccc2)NC(=O)[C@H](CO)NC1=O [FEEc, CSFEEC] (H-CSFEEC-OH; disulfide 1-6)
toxic effect on oocytes [1]: no toxic effect on oocytes
